Tested on: patients with postpartum depression (PPD)
Assay: Clinical trial of inhaled 5-MeO-DMT (IDR) in postpartum depression; one patient so far, 6 mg then 12 mg
Conditions: 1 patient
Protocol: The single-arm, open-label clinical trial will involve 15 adult female patients with clinically diagnosed postpartum depression (PPD).
The second dose (12 mg) will only be administered if: • a. […] The 6 mg dose was safe and well-tolerated according to the investigator, • c. Any psychoactive effects (PsE) of the prior dose have subsided, and • d. Pre-dose vital parameters and forced expiratory volume in one second (FEV1) are in normal range, or if outside of the normal range, are not clinically significant according to the investigator. • 3. Similarly, a third dose (18 mg) will only be administered if: • a. […] The 12 mg dose was safe and well-tolerated according to the investigator, and • c. Any PsE of the prior dose have subsided, and • d. Pre-dose vital parameters and forced expiratory volume in one second (FEV1) are in normal range, or if outside of the normal range, are not clinically significant according to the investigator.
The patients will be assessed for a peak psychedelic experience (based on a patient-scored visual analogue scale, the PE scale), sedation, and other endpoints after dosing. Follow-up visits are planned for Day 1, and Day 7 after the dosing day.
The following criteria must be met by all patients considered for clinical trial participation: • 1. Is female and in the age range between 18 and 45 years (inclusive) at screening. • 2. Has a body mass index (BMI) in the range of 18.5 and 35 kg/m^2 (inclusive) at screening. • 3. Meets the trial criteria for PPD as assessed by a trial psychiatrist or registered psychologist: • a. Diagnosis of Major Depressive Disorder without psychotic features, confirmed by the Mini-International Neuropsychiatric Interview (MINI), with peri-partum onset that began no earlier than gestation and no later than the first 4 weeks postpartum. • b. Has a Montgomery-Åsberg Depression Rating Scale (MADRS) total score of equal to or greater than 28 at screening and pre-dose on Day 0. • 6. […] Patients must have a negative pregnancy test at screening and on the pre-test day (Day −1). • 5. Is willing to delay start of other antidepressant or anxiety medication until after the end of the trial at Day 7 and agrees to keep any psychotherapy unchanged during the trial.
A potential patient who meets any of the following key exclusion criteria will be excluded from participation in this trial: • 1. Has, based on history, psychiatric assessment, and evaluation of the MINI, a current or prior diagnosis of bipolar disorder, a manic or hypomanic episode, a psychotic disorder, Major Depressive Disorder (MDD) or other mood disorder with psychotic features, obsessive compulsive disorder, post-traumatic stress disorder (PTSD), autism spectrum disorder, borderline personality disorder, schizophrenia, delusional disorder, paranoid personality disorder, schizoaffective disorder, clinically significant intellectual disability, or any other psychiatric comorbidity that renders the patient unsuitable for the trial according to the investigator's judgment. • 2. Has one or more first or second degree relatives with a current or previously diagnosed bipolar disorder, psychotic disorder or other mood disorder (including MDD) with psychotic features. • 3. Is in the judgement of a trial psychiatrist or registered psychologist, at significant risk for suicide based on history, psychiatric assessment, and evaluation of suicidal ideation and suicidal behaviour based on the Columbia-Suicide Severity Rating Scale (C-SSRS). • 4. Has taken anti-depressive medication within 14 days or 5 half-lives (whichever is longer) prior to dosing (exception: within the last 5 weeks in the case of fluoxetine). • 5.

COc1ccc2[nH]cc(CCN(C)C)c2c1 [5-MeO-DMT]
BIMF item 11 (take a little time each week to do something for myself) score (Day 7): 6 | BIMF item 12 (taking good care of my baby's physical needs) score (Day 7): 6 | BIMF item 13 (taking good care of my physical needs) score (Day 7): 5 | BIMF item 14 (good decisions about my baby's health and well being) score (Day 7): 6 | BIMF item 15 (My baby and I are getting into a routine) score (Day 7): 6 | BIMF item 17 (able to take care of my baby and my other responsibilities) score (Day 7): 5 | BIMF item 18 (Anxiety or worry often interferes with my mothering ability) score (Day 7): 5 | BIMF item 19 (getting better at taking care of my baby) score (Day 7): 1 | BIMF item 20 (satisfied with the job I am doing as a new mother) score (Day 7): 5 | BPRS Anxiety improvement (Day 7): 6 | BPRS Anxiety score (Day 7): 1 | BPRS Blunted affect improvement (Day 7): 0 | BPRS Blunted affect score (Day 7): 1 | BPRS Conceptual disorganization improvement (Day 7): 0 | BPRS Conceptual disorganization score (Day 7): 1 | BPRS Depressive Mood improvement (Day 7): 5 | BPRS Depressive Mood score (Day 7): 1 | BPRS Disorientation improvement (Day 7): 0 | BPRS Disorientation score (Day 7): 1 | BPRS Emotional withdrawal improvement (Day 7): 4 | BPRS Emotional withdrawal score (Day 7): 1 | BPRS Excitement improvement (Day 7): 1 | BPRS Excitement score (Day 7): 1 | BPRS Grandiosity improvement (Day 7): 0 | BPRS Grandiosity score (Day 7): 1 | BPRS Guilt feelings improvement (Day 7): 5 | BPRS Guilt feelings score (Day 7): 1 | BPRS Hallucinatory behaviour improvement (Day 7): 0 | BPRS Hallucinatory behaviour score (Day 7): 1 | BPRS Hostility improvement (Day 7): 0 | BPRS Hostility score (Day 7): 1 | BPRS Mannerisms and Posturing improvement (Day 7): 0 | BPRS Mannerisms and Posturing score (Day 7): 1 | BPRS Motor retardation improvement (Day 7): 0 | BPRS Motor retardation score (Day 7): 1 | BPRS Somatic Concern improvement (Day 7): 5 | BPRS Somatic Concern score (Day 7): 1 | BPRS Suspiciousness improvement (Day 7): 0 | BPRS Suspiciousness score (Day 7): 1 | BPRS Tension improvement (Day 7): 5 | BPRS Tension score (Day 7): 1 | BPRS Uncooperativeness improvement (Day 7): 0 | BPRS Uncooperativeness score (Day 7): 1 | BPRS Unusual Thought Content improvement (Day 7): 0 | BPRS Unusual Thought Content score (Day 7): 1 | MADRS Apparent sadness improvement (Day 7): 5 | MADRS Apparent sadness score (Day 7): 0 | MADRS Concentration Difficulties improvement (Day 7): 0 | MADRS Concentration Difficulties score (Day 7): 0 | MADRS Inability to Feel improvement (Day 7): 3 | MADRS Inability to Feel score (Day 7): 0 | MADRS Inner Tension improvement (Day 7): 4 | MADRS Inner Tension score (Day 7): 1 | MADRS Lassitude improvement (Day 7): 3 | MADRS Lassitude score (Day 7): 0 | MADRS Pessimistic Thoughts improvement (Day 7): 4 | MADRS Pessimistic Thoughts score (Day 7): 0 | MADRS Reduced Sleep improvement (Day 7): 5 | MADRS Reduced Sleep score (Day 7): 0 | MADRS Reduced appetite improvement (Day 7): 0 | MADRS Reduced appetite score (Day 7): 0 | MADRS Reported sadness improvement (Day 7): 4 | MADRS Reported sadness score (Day 7): 0 | MADRS Suicidal Thoughts improvement (Day 7): 0 | MADRS Suicidal Thoughts score (Day 7): 0 | BIMF item 10 (trust my own feelings (instincts) in taking care of my baby) Δ (Day 7 vs Day 0): 1 | BIMF item 11 (take a little time each week to do something for myself) Δ (Day 7 vs Day 0): 1 | BPRS Anxiety improvement (Discharge): 6 | BPRS Anxiety score (Discharge): 1 | BPRS Blunted affect improvement (Discharge): 0 | BPRS Conceptual disorganization improvement (Discharge): 0 | BPRS Depressive Mood improvement (Discharge): 5 | BPRS Depressive Mood score (Discharge): 1 | BPRS Disorientation improvement (Discharge): 0 | BPRS Emotional withdrawal improvement (Discharge): 4 | BPRS Emotional withdrawal score (Discharge): 1 | BPRS Excitement improvement (Discharge): 1 | BPRS Excitement score (Discharge): 1 | BPRS Grandiosity improvement (Discharge): 0 | BPRS Guilt feelings improvement (Discharge): 5 | BPRS Guilt feelings score (Discharge): 1 | BPRS Hallucinatory behaviour improvement (Discharge): 0 | BPRS Hostility improvement (Discharge): 0 | BPRS Mannerisms and Posturing improvement (Discharge): 0 | BPRS Motor retardation improvement (Discharge): 0 | BPRS Somatic Concern improvement (Discharge): 5 | BPRS Somatic Concern score (Discharge): 1 | BPRS Suspiciousness improvement (Discharge): 0 | BPRS Tension score (Discharge): 1 | BPRS Uncooperativeness improvement (Discharge): 0 | BPRS Unusual Thought Content improvement (Discharge): 0 | BPRS Anxiety score (baseline): 7 | BPRS Blunted affect score (baseline): 1 | BPRS Conceptual disorganization score (baseline): 1 | BPRS Depressive Mood score (baseline): 6 | BPRS Disorientation score (baseline): 1 | BPRS Emotional withdrawal score (baseline): 5 | BPRS Excitement score (baseline): 2 | BPRS Grandiosity score (baseline): 1 | BPRS Guilt feelings score (baseline): 6 | BPRS Hallucinatory behaviour score (baseline): 1 | BPRS Hostility score (baseline): 1 | BPRS Mannerisms and Posturing score (baseline): 1 | BPRS Motor retardation score (baseline): 1 | BPRS Somatic Concern score (baseline): 6 | BPRS Suspiciousness score (baseline): 1 | BPRS Tension score (baseline): 6 | BPRS Uncooperativeness score (baseline): 1 | BPRS Unusual Thought Content score (baseline): 1 | MADRS Apparent sadness score (baseline): 5 | MADRS Inability to Feel score (baseline): 3 | MADRS Inner Tension score (baseline): 5 | MADRS Lassitude score (baseline): 3 | MADRS Pessimistic Thoughts score (baseline): 4 | MADRS Reported sadness score (baseline): 4 | Total MADRS score (baseline): 29 | changes in vital parameters (shortly after administration): temporary, clinically non-relevant increase in heart rate and blood pressure

— US20250213533A1 (GH RESEARCH IRELAND LIMITED, priority 2022, published 2025)
